{"source": "patent US8507518B2", "about": "“Method of treating mantle cell lymphoma” (Mayo Foundation for Medical Education and Research, priority 2003, dated 2013)", "key": {"[1]": {"experiment": "Stability of CCI-779 in parenteral cosolvent formulation with antioxidant/chelating agent", "type": "physicochemical", "conditions": "citric acid at a concentration of less than 0.01% w/v", "source_text": "In this embodiment, the stability of a CCI-779 in parenterally acceptable alcoholic cosolvents is enhanced by addition of an antioxidant to the formulation. Acceptable antioxidants include, but are not limited to, citric acid, d,l-α-tocopherol, BHA, BHT, monothioglycerol, ascorbic acid, propyl gallate, and mixtures thereof. Generally, the parenteral formulations useful in this embodiment of the invention will contain an antioxidant component(s) in a concentration ranging from 0.001% to 1% w/v, or 0.01% to 0.5% w/v, of the cosolvent concentrate, although lower or higher concentrations may be desired. Of the antioxidants, d,l-α-tocopherol is particularly desirable and is used at a concentration of 0.01 to 0.1% w/v with a preferred concentration of 0.075% w/v of the cosolvent concentrate.\nExamples of such chelating agents include, e.g., citric acid, acetic acid, and ascorbic acid (which may function as both a classic antioxidant and a chelating agent in the present formulations). Other chelating agents include such materials as are capable of binding metal ions in solution, such as ethylene diamine tetra acetic acid (EDTA), its salts, or amino acids such as glycine are capable of enhancing the stability of a CCI-779. […] Optimal concentrations for the selected antioxidant(s) can be readily determined by one of skill in the art, based upon the information provided herein."}, "[2]": {"experiment": "Safety and tolerability in the phase II trial of CCI-779 250 mg IV weekly", "type": "in vivo, human", "experimental": "(§1) Patients were treated with a flat dose of 250 mg of CCI-779 diluted in 250 mL of normal saline and delivered IV over 30 minutes. Patients were pretreated with diphenhydramine 25-50 mg IV. Treatment was weekly and a cycle was considered 4 weeks. A complete blood count was performed each week and a full dose delivered if the platelet count was ≧50,000 and the ANC≧1000 and there was no grade 3 non-hematologic toxicity (using the NCI Common Toxicity Criteria version 2). […] Patients were not to receive prophylactic white blood cell growth factors to maintain dosing but could receive them at time of neutropenia at physician discretion. Erythropoietin could be used.\nAll 35 patients were included in the analysis of safety and tolerability. During the 30 minute infusion, CCI-779 was well-tolerated and there were no significant toxicities that occurred. Thrombocytopenia was the cause of most dose reductions and was rapidly reversible with drug delays of typically only one week. Only three patients required platelet transfusions, and four patients required red blood cell transfusions. Thirteen patients experienced grade 3 infections without concomitant neutropenia; two patients had febrile neutropenia and three had infection (grade 3) with neutropenia. […] The conclusion was that this was idiopathic Bell's palsy and indeed it eventually resolved. A possible relationship to CCI-779 could not be established nor eliminated. The patient who experienced blurred vision was diagnosed with retinitis due to reactivation of cytomegalovirus (CMV) infection."}, "mantle cell lymphoma [3]": {"tested_on": "mantle cell lymphoma", "experiment": "Phase II study of low dose single-agent CCI-779, 25 mg/week, in relapsed mantle cell lymphoma", "type": "in vivo, human", "experimental": "Eleven patients (4 refractory, […], ranging from 55 to 85 years old) with MCL were enrolled in a Phase II study of CCI-779 and were treated as described in Example 1 above, with the exception that they received a 10-fold lower dose than in Example 1, i.e., 25 mg/week. Eight patients (73%) were in stage 4, two (18%) in stage 3, and 4 (36%) had ≧2 extranodal sites. Patients had received a median of 3 prior therapies (range, 1-7) and 3 were refractory to their last treatment."}, "mantle cell lymphoma [4]": {"tested_on": "mantle cell lymphoma", "experiment": "Phase II trial of single-agent CCI-779, 250 mg IV weekly, in relapsed mantle cell lymphoma (NCCTG)", "type": "in vivo, human", "experimental": "The ability of a CCI-779 to treat or inhibit mantle cell lymphoma was evaluated in a clinical trial. Briefly, 18 patients (mean age 72 years, range 38-89 years) were treated with an intravenous dose of 250 mg CCI-779 on days 1, 8, 15, and 22 of a 4 week treatment cycle, for up to a maximum of 12 cycles. Of these patients, 15 were stage IV, 2 were stage III, and 1 was stage II. […] Only 3 patients progressed before the end of the cycle. Based on the results obtained in this clinical trial, CCI-779 is useful in the treatment or inhibition of mantle cell lymphoma.\nThis study was conducted through the North Central Cancer Treatment Group (NCCTG) cooperative group. Patients were eligible for this trial if they had previously received therapy and had relapsed. There was no limit on the number of prior therapies. All histologies were confirmed to be mantle cell lymphoma by central pathology review. Cyclin-D1 positivity was required by immunohistochemistry or t(11;14) detected by FISH. Patients were required to have measurable disease with a lymph node or tumor mass≧2 cm or malignant lymphocytosis with an ALC≧5,000; a life expectancy of ≧3 months, ECOG performance status of 0, 1, or 2; absolute neutrophil count (ANC)≧1,000; platelets≧75,000; hemoglobin≧8 g/dL; serum creatinine≦2× the upper limit of normal (UNL); serum bilirubin≦1.5 UNL; serum cholesterol≦350 mg/dL; and triglycerides≦400 mg/dL. Patients could not have known central nervous system involvement or HIV infection.\nas §1\nPatients were restaged after 1, 3, and 6 cycles and the response assessed as per the international workshop criteria. [B. D. Cheson, et al., “Report of an International Workshop to Standardize Response Criteria for Non-Hodgkin's Lymphomas”, Journal of Clinical Oncology, Vol 17, Issue 4 (April), 1999: 1244]. Patients who progressed anytime or those patients with stable disease after 6 cycles went off study.\nA single stage phase II study with an interim analysis was conducted to assess the proportion of previously treated mantle cell lymphoma patients who achieved a PR or better after treatment with CCI-779. This trial was designed to test the null hypothesis that the true response rate was at most 0.05. The smallest response rate that would indicate that this regimen was worth further study in this patient population was 0.20. The design was generated based on the parameters and assumptions of a two-stage Simon MinMax™ design, but where accrual was not suspended for the interim analysis. This study design required a maximum of 32 evaluable patients, where the interim analysis was performed after 18 patients had been accrued and followed for at least 24 weeks. An additional 3 patients were accrued to this cohort (for a maximum of 35 patients overall) to account for the possibilities of ineligibility, withdrawal from study prior to drug administration, or major violations. However, only the first 32 evaluable patients were used to evaluate the decision criteria for this design. At least one response in the first 18 evaluable patients needed to be observed in the interim analysis to continue accrual. At the time of the final analyses, a total of four or more responses were required to indicate that this regimen warrants further evaluation in this patient population. […]"}, "[5]": {"conditions": "overall, median follow-up 11 months"}}}
{"smiles": "CO[C@H]1C[C@@H]2CC[C@@H](C)[C@@](O)(O2)C(=O)C(=O)N2CCCC[C@H]2C(=O)O[C@H]([C@H](C)C[C@@H]2CC[C@@H](OC(=O)C(C)(CO)CO)[C@H](OC)C2)CC(=O)[C@H](C)/C=C(\\C)[C@@H](O)[C@@H](OC)C(=O)[C@H](C)C[C@H](C)/C=C/C=C/C=C/1C", "note": "[CCI-779, rapamycin 42-ester with 3-hydroxy-2-(hydroxymethyl)-2-methylpropionic acid]", "values": [{"measurement": "effect of citric acid on stability of CCI-779", "setting": "[1]", "result": "enhanced the stability"}, {"measurement": "adverse event, all grades: AST elevations", "setting": "[2]; 35 patients", "result": 43, "unit": "%"}, {"measurement": "adverse event, all grades: abnormal taste", "setting": "[2]; 35 patients", "result": 43, "unit": "%"}, {"measurement": "adverse event, all grades: anemia", "setting": "[2]; 35 patients", "result": 66, "unit": "%"}, {"measurement": "adverse event, all grades: fatigue", "setting": "[2]; 35 patients", "result": 66, "unit": "%"}, {"measurement": "adverse event, all grades: hypercholesterolemia", "setting": "[2]; 35 patients", "result": 40, "unit": "%"}, {"measurement": "adverse event, all grades: hyperglycemia", "setting": "[2]; 35 patients", "result": 91, "unit": "%"}, {"measurement": "adverse event, all grades: increased triglycerides", "setting": "[2]; 35 patients", "result": 77, "unit": "%"}, {"measurement": "adverse event, all grades: infection without concomitant neutropenia", "setting": "[2]; 35 patients", "result": 63, "unit": "%"}, {"measurement": "adverse event, all grades: loss of appetite", "setting": "[2]; 35 patients", "result": 40, "unit": "%"}, {"measurement": "adverse event, all grades: mucositis", "setting": "[2]; 35 patients", "result": 71, "unit": "%"}, {"measurement": "adverse event, all grades: nausea", "setting": "[2]; 35 patients", "result": 49, "unit": "%"}, {"measurement": "adverse event, all grades: neutropenia", "setting": "[2]; 35 patients", "result": 77, "unit": "%"}, {"measurement": "adverse event, all grades: rash", "setting": "[2]; 35 patients", "result": 51, "unit": "%"}, {"measurement": "adverse event, all grades: sensory neurophathy", "setting": "[2]; 35 patients", "result": 37, "unit": "%"}, {"measurement": "adverse event, all grades: thrombocytopenia", "setting": "[2]; 35 patients", "result": 100, "unit": "%"}, {"measurement": "adverse event, all grades: weight loss", "setting": "[2]; 35 patients", "result": 46, "unit": "%"}, {"measurement": "grade 5 events (deaths on treatment)", "setting": "[2]; 35 patients", "result": "No grade 5 events"}, {"measurement": "patients requiring platelet transfusions", "setting": "[2]; 35 patients", "result": "three"}, {"measurement": "patients requiring red blood cell transfusions", "setting": "[2]; 35 patients", "result": "four"}, {"measurement": "patients with febrile neutropenia", "setting": "[2]; 35 patients", "result": "two"}, {"measurement": "patients with grade 3 infections without concomitant neutropenia", "setting": "[2]; 35 patients", "result": "Thirteen"}, {"measurement": "patients with infection (grade 3) with neutropenia", "setting": "[2]; 35 patients", "result": "three"}, {"measurement": "tolerability during the 30 minute infusion", "setting": "[2]; 35 patients", "result": "well-tolerated"}, {"measurement": "median time to discontinuation of treatment", "setting": "[2]; 95% CI 3-6.2 months", "result": 3.7, "unit": "months"}, {"measurement": "patients who went off treatment due to adverse reactions", "setting": "[2]; of 28 patients who discontinued treatment", "result": 7}, {"measurement": "dose reductions necessary", "setting": "[2]; starting dose 250 mg weekly", "result": "all but 4 patients"}, {"measurement": "overall response rate", "setting": "mantle cell lymphoma [3]; 7/11 patients", "result": 64, "unit": "%"}, {"measurement": "number of PRs", "setting": "mantle cell lymphoma [3]; 11 patients", "result": 7}, {"measurement": "overall response rate (ORR)", "setting": "mantle cell lymphoma [4]; 13/34 patients, 250 mg IV weekly, 90% CI 24%-54%", "result": 38, "unit": "%"}, {"measurement": "median duration of response", "setting": "mantle cell lymphoma [4]; 13 responders, 95% CI 4-13.2 months", "result": 5.7, "unit": "months"}, {"measurement": "overall response rate", "setting": "mantle cell lymphoma [4]; 18 patients, 250 mg IV days 1, 8, 15, 22 of 4 week cycle, 95% CI 24%-68%", "result": 44.4, "unit": "%"}, {"measurement": "patients progressed before the end of the cycle", "setting": "mantle cell lymphoma [4]; 18 patients, 250 mg IV weekly", "result": 3, "unit": "patients"}, {"measurement": "patients with complete response (CR)", "setting": "mantle cell lymphoma [4]; 18 patients, 250 mg IV weekly", "result": "One"}, {"measurement": "patients with partial response (PR)", "setting": "mantle cell lymphoma [4]; 18 patients, 250 mg IV weekly", "result": 7, "unit": "patients"}, {"measurement": "number of CR", "setting": "mantle cell lymphoma [4]; 34 patients, 250 mg IV weekly", "result": 1}, {"measurement": "number of PRs", "setting": "mantle cell lymphoma [4]; 34 patients, 250 mg IV weekly", "result": 12}, {"measurement": "median time to progression", "setting": "mantle cell lymphoma [4]; 95% CI 3.8-9.4 months", "result": 6.2, "unit": "months"}, {"measurement": "median overall survival", "setting": "mantle cell lymphoma [4]; 95% CI 6.7 months to not yet reached", "result": 12, "unit": "months"}, {"measurement": "responses after 4 months evaluation", "setting": "mantle cell lymphoma [4]; of 13 responders", "result": 1}, {"measurement": "responses after 8 months evaluation", "setting": "mantle cell lymphoma [4]; of 13 responders", "result": 1}, {"measurement": "responses after the first cycle evaluation", "setting": "mantle cell lymphoma [4]; of 13 responders", "result": "Eight"}, {"measurement": "responses documented after 3 cycles", "setting": "mantle cell lymphoma [4]; of 13 responders", "result": 3}, {"measurement": "patients who have died", "setting": "mantle cell lymphoma [4]; [5]", "result": 22, "unit": "patients"}, {"measurement": "patients with disease progression", "setting": "mantle cell lymphoma [4]; [5]", "result": 29, "unit": "patients"}, {"measurement": "median time to response", "setting": "mantle cell lymphoma [4]; range 1-8", "result": 1, "unit": "month"}, {"measurement": "anti-tumor activity in relapsed MCL", "setting": "mantle cell lymphoma [4]; single agent", "result": "substantial anti-tumor activity"}]}
